Data: patent US20250152585A1, “PHARMACEUTICAL COMPOUND” (Duke Street Bio Limited, priority 2022, published 2025)
Like-named read-outs stand apart in the source and are kept apart here.

How the values were obtained:
[1] = molecular target: T1, full length N-terminally FLAG-tagged PARP1 (Homo sapiens, UniProt P09874); assay: PARP1 biochemical DELFIA assay (auto-PARylation); design: recombinant full length human N-terminally FLAG-tagged PARP1
[2] = molecular target: T1, full length N-terminally FLAG-tagged PARP1; assay: PARP1 probe displacement HTRF assay; settings: for Selectivity: PARP1 over PARP2, ratio Kd (PARP2)/Kd (PARP1); for Kd: binned Kd
[3] = molecular target: T2, N-terminally FLAG-tagged PARP2 (amino acids 1-583) (Homo sapiens, UniProt Q9UGN5); assay: PARP2 probe displacement HTRF assay; assay type: binding; settings: binned Kd
T2 construct: N-terminally FLAG-tagged PARP2 (amino acids 1-583)
T2 sequence (Q9UGN5 whole entry, the tested form may be a part): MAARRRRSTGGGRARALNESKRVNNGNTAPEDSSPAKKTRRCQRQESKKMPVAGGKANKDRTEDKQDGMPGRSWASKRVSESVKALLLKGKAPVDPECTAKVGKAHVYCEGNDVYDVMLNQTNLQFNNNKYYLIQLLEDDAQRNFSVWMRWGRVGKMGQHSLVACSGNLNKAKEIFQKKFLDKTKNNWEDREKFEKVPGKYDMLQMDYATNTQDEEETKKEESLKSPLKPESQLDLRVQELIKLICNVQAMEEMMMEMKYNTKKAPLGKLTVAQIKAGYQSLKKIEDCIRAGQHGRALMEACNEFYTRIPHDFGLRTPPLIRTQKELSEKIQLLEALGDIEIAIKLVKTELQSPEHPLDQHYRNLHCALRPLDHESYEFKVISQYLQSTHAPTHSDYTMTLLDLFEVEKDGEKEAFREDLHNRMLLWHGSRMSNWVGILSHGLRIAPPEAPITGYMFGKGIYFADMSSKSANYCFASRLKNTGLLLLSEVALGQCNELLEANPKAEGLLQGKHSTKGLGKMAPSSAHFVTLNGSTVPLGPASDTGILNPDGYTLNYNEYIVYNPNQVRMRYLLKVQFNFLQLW
Procedure: Data analysis was performed identical as for PARP1.

[4] = binned IC50, biochemical auto-PARylation assay
[5] = read-out: PARP1 HTRF, probe displacement HTRF
[6] = binned IC50, PARP1 biochemical DELFIA assay
[7] = read-out: PARP1 HTRF, PARP1 probe displacement HTRF

T1 sequence (P09874 whole entry): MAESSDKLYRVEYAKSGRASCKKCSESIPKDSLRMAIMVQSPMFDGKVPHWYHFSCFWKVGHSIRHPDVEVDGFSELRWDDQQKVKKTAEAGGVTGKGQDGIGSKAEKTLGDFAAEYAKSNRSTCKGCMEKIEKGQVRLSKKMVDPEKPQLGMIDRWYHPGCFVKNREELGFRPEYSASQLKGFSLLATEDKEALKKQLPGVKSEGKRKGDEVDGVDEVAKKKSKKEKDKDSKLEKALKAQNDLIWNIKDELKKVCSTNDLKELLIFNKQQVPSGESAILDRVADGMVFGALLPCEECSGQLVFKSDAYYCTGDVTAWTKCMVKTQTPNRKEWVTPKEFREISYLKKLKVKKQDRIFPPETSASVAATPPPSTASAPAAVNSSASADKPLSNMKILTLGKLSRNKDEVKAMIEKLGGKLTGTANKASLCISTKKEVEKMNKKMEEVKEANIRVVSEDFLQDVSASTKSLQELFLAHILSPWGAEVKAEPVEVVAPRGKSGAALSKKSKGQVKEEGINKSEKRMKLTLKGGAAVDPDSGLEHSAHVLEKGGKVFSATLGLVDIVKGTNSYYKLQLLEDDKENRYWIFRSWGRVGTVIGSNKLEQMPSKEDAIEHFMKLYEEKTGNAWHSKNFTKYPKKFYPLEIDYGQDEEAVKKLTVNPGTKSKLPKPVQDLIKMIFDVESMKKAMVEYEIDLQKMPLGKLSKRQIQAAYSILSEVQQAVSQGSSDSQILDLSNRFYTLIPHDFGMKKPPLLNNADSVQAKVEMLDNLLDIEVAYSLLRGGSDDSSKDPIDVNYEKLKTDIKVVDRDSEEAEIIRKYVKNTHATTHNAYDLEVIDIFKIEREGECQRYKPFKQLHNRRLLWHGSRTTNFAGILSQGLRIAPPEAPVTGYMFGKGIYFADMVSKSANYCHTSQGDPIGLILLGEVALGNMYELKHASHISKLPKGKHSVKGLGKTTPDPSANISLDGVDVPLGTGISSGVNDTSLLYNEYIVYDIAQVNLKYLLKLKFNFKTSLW

SMILES | Selectivity ([2]; probe displacement HTRF) | IC50 [1, 6] | other results
N#Cc1ccc(N2CCC(N3CCC(c4cc5cccc(F)c5c(=O)[nH]4)C3)CC2)cn1 (single isomer, unassigned) [Compound 316b] | + (+ indicates a value of 10 to less than 50) |  | IC50 [1, 4]: 0.01 to 0.1 µM; Kd [2, 5]: 0.01 to 0.1 µM; Kd ([3]; probe displacement HTRF): 0.1 to 1 µM
CNC(=O)c1ccc(N2CCC(N3CCC(c4cc5ccc(F)cc5c(=O)[nH]4)C3)CC2)c(C#N)n1 (single isomer, unassigned) [Compound 396a] | +++ (+++ indicate a value of at least 100) |  | IC50 [1, 4]: < 0.01 µM; Kd [2, 5]: < 0.01 µM; Kd ([3]; probe displacement HTRF): 0.1 to 1 µM
CNC(=O)c1ccc(N2CCC(N3CC4(c5nc6ccc(F)cc6c(=O)[nH]5)CC3C4)CC2)cn1 [Compound 238] | +++ (+++ indicate a value of at least 100) |  | IC50 [1, 4]: < 0.01 µM; Kd ([2]; PARP1 HTRF, probe displacement HTRF): < 0.01 µM; Kd ([3]; probe displacement HTRF): 0.1 to 1 µM
CNC(=O)c1ccc(N2CC(N3CCCC(Cc4nc5ccccc5c(=O)[nH]4)C3)C2)cn1 (single isomer, unassigned) [Compound 51a] | + (+ indicates a value of 10 to less than 50) | 0.1 to 1 µM | Kd [2, 7]: 0.1 to 1 µM; Kd ([3]; PARP2 probe displacement HTRF): > 10 µM
CC(=O)Nc1ccc(N2CCC(N3CCC(c4cc5ccccc5c(=O)[nH]4)C3)CC2)cc1 (single isomer, unassigned) [Compound 289a] | − (− indicates a value of less than 10) |  | IC50 [1, 4]: 0.1 to 1 µM; Kd [2, 5]: 0.1 to 1 µM; Kd ([3]; probe displacement HTRF): 1 to 10 µM
CNC(=O)c1ccc(N2CCC(N3CCCC(F)(c4nc5ccccc5c(=O)[nH]4)C3)CC2)cn1 (single isomer, unassigned) [Compound 71a] | − (− indicates a value of less than 10) | 1 to 10 µM | Kd [2, 7]: 1 to 10 µM; Kd ([3]; PARP2 probe displacement HTRF): > 10 µM
CNC(=O)c1ccc(N2CCC(N3CCCC(c4ccc(C(C)C)c(=O)[nH]4)C3)CC2)cn1 (racemic) [Compound 132rac] | +++ (+++ indicate a value of at least 100) | 0.01 to 0.1 µM | Kd [2, 7]: 0.01 to 0.1 µM; Kd ([3]; PARP2 probe displacement HTRF): > 10 µM
CNC(=O)c1ccc(N2CCC(N3CCCC(c4nc5sc6c(c5c(=O)[nH]4)CCC6)C3)CC2)cn1 (single isomer, unassigned) [Compound 185a] | +++ (+++ indicate a value of at least 100) | < 0.01 µM | Kd [2, 7]: < 0.01 µM; Kd ([3]; PARP2 probe displacement HTRF): 0.1 to 1 µM
O=c1[nH]c(C2CCN(C3CCN(c4ccc(Cl)cc4)CC3)C2)nc2ccccc12 (single isomer, unassigned) [Compound 43b] | + (+ indicates a value of 10 to less than 50) | < 0.01 µM | Kd [2, 7]: < 0.01 µM; Kd ([3]; PARP2 probe displacement HTRF): 0.1 to 1 µM
CNC(=O)c1ccc(N2CCC(N3CCC(c4ccc(OC)c(=O)[nH]4)C3)CC2)c(C(F)(F)F)n1 (single isomer, unassigned) [Compound 152b] | ++ (++ indicates a value of 50 to less than 100) | 0.01 to 0.1 µM | Kd [2, 7]: 0.01 to 0.1 µM; Kd ([3]; PARP2 probe displacement HTRF): > 10 µM
CNC(=O)c1ccc(N2CCC(N3CCC(c4cc5cccc(F)c5c(=O)[nH]4)C3)CC2)c(F)n1 (single isomer, unassigned) [Compound 184a, 6-fluoro-5-[4-[3-(8-fluoro-1-oxo-2H-isoquinolin-3-yl)pyrrolidin-1-yl]piperidin-1-yl]-N-methylpyridine-2-carboxamide] | +++ (+++ indicate a value of at least 100) | < 0.01 µM | Kd ([2]; PARP1 HTRF, PARP1 probe displacement HTRF): < 0.01 µM; Kd ([3]; PARP2 probe displacement HTRF): 1 to 10 µM
CNC(=O)c1ccc(N2CCC(N3CCC(c4cc5cccc(O)c5c(=O)[nH]4)C3)CC2)cn1 (racemic) [Compound 271rac] | +++ (+++ indicate a value of at least 100) |  | IC50 [1, 4]: < 0.01 µM; Kd [2, 5]: < 0.01 µM; Kd ([3]; probe displacement HTRF): 0.1 to 1 µM
CCc1cnc(C2CCN(C3CCN(c4ccc(C(=O)NC)nc4)CC3)CC2)[nH]c1=O [Compound 19] |  | 1 to 10 µM | 
CNC(=O)c1ccc(N2CCC(n3ccc(-c4nc5ccccc5c(=O)[nH]4)c3)CC2)cn1 [Compound 18] |  | 0.1 to 1 µM | 
CNC(=O)c1ccc(N2CCC(c3nc4ccccc4c(=O)[nH]3)CC2)cn1 [Compound 5] |  | 1 to 10 µM | 
CNC(=O)c1ccc(N2CCC(CN3CCC(c4ncc(C)c(=O)[nH]4)CC3)CC2)cn1 [Compound 30] |  | 0.1 to 1 µM | 
CNC(=O)c1ccc(N(C)CCCN2CCCC(c3nc4ccccc4c(=O)[nH]3)C2)cn1 (single isomer, unassigned) [Compound 16a] |  | 0.1 to 1 µM | 
O=c1[nH]c(C2CCN(C3CCC(F)(F)CC3)C2)nc2ccccc12 (single isomer, unassigned) [Compound 4b] |  | 0.1 to 1 µM | 
CNC(=O)c1ccc(N2CC(N3CCCC(c4nc5ccccc5c(=O)[nH]4)C3)C2)cn1 (single isomer, unassigned) [Compound 23a] |  | 0.1 to 1 µM | 
CNC(=O)c1ccc(N2CC(N3CCC(c4nc5ccccc5c(=O)[nH]4)CC3)C2)cn1 [Compound 28] |  | 0.1 to 1 µM | 
CCc1cnc(C2CCN(C3CCC(F)(F)CC3)CC2)[nH]c1=O [Compound 21] |  | 1 to 10 µM | 
O=c1[nH]c(C2CCCN(C3CCC(F)(F)CC3)C2)nc2ccccc12 (single isomer, unassigned) [Compound 3b] |  | 0.1 to 1 µM | 
CNC(=O)c1ccc(N(C)CCCN2CCCC(c3nc4ccccc4c(=O)[nH]3)C2)cn1 (single isomer, unassigned) [Compound 16b] |  | 0.1 to 1 µM | 

SMILES | Selectivity ([2]; probe displacement HTRF) | IC50 [1, 6] | other results
CCc1cnc(C2CCN(CC3CCN(c4ccc(C(=O)NC)nc4)CC3)CC2)[nH]c1=O [Compound 29] |  | 1 to 10 µM | 
CCc1cnc(-c2ccn(C3CCN(c4ccc(C(=O)NC)nc4)CC3)c2)[nH]c1=O [Compound 22] |  | 1 to 10 µM | 
CNC(=O)c1ccc(OCCN2CCCC(Cc3nc4ccccc4c(=O)[nH]3)C2)cn1 (single isomer, unassigned) [Compound 14a, N-methyl-5-(2-(3-((4-oxo-3,4-dihydroquinazolin-2-yl)methyl)piperidin-1-yl)ethoxy)picolinamide] |  | 1 to 10 µM | 
CNC(=O)c1ccc(N2CCC(N3CCCC(c4ncc(C)c(=O)[nH]4)C3)CC2)cn1 (single isomer, unassigned) [Compound 33a] |  | > 10 µM | 
CNC(=O)c1ccc(N(C)CCCN2CCC(c3nc4ccccc4c(=O)[nH]3)CC2)cn1 [Compound 12] |  | 0.1 to 1 µM | 
CNC(=O)c1ccc(N2CCC(n3ccc(-c4nc5ccccc5c(=O)[nH]4)n3)CC2)cn1 [Compound 15] |  | 0.1 to 1 µM | 
CCc1cnc(C2CCCN(C3CCN(c4ccc(C(=O)NC)nc4)CC3)C2)[nH]c1=O (single isomer, unassigned) [Compound 31a] |  | 1 to 10 µM | 
CNC(=O)c1ccc(OCCCN2CCCC(c3nc4ccccc4c(=O)[nH]3)C2)cn1 (single isomer, unassigned) [Compound 7b] |  | 0.1 to 1 µM | 
CNC(=O)c1ccc(N2CCC(N3CCCC(c4nc5ccc(F)cc5c(=O)[nH]4)C3)CC2)cn1 (single isomer, unassigned) [Compound 78a] | +++ (+++ indicate a value of at least 100) |  | Kd [2, 7]: < 0.01 µM; Kd ([3]; PARP2 probe displacement HTRF): 1 to 10 µM
CNC(=O)c1ccc(N(C)CCN2CCCC(Cc3nc4ccccc4c(=O)[nH]3)C2)cn1 (single isomer, unassigned) [Compound 13a] |  | 1 to 10 µM | 
O=c1[nH]c(C2CCN(C3CCN(c4ccc(-c5ncc[nH]5)cc4)CC3)C2)nc2ccccc12 (single isomer, unassigned) [Compound 76a] | − (− indicates a value of less than 10) |  | Kd [2, 7]: 0.01 to 0.1 µM; Kd ([3]; PARP2 probe displacement HTRF): 0.1 to 1 µM
CNC(=O)c1ccc(N2CCC(N3CCC(c4nc5onc(C(F)(F)F)c5c(=O)[nH]4)C3)CC2)cn1 (racemic) [Compound 176rac] | + (+ indicates a value of 10 to less than 50) |  | Kd [2, 7]: 0.1 to 1 µM; Kd ([3]; PARP2 probe displacement HTRF): > 10 µM
CNC(=O)c1ccc(N2CCC(N3CCC(c4nc5cccnc5c(=O)[nH]4)C3)CC2)cn1 (single isomer, unassigned) [Compound 77a] | + (+ indicates a value of 10 to less than 50) |  | Kd [2, 7]: 0.1 to 1 µM; Kd ([3]; PARP2 probe displacement HTRF): > 10 µM
CCc1cnc(C2CCCN(C3CCC(F)(F)CC3)C2)[nH]c1=O (single isomer, unassigned) [Compound 24a] |  | 1 to 10 µM | 
O=c1[nH]c(C2CCN(C3CCN(c4ccccc4)CC3)C2)nc2ccccc12 (single isomer, unassigned) [Compound 32b] |  | 0.1 to 1 µM | 
CNC(=O)c1ccc(N2CCC(N3CCC(c4nc5ccccc5c(=O)[nH]4)C3)CC2)cc1 (single isomer, unassigned) [Compound 80a] | +++ (+++ indicate a value of at least 100) |  | Kd [2, 7]: < 0.01 µM; Kd ([3]; PARP2 probe displacement HTRF): 0.1 to 1 µM
CCc1cnc(C2CCCN(C3CCC(F)(F)CC3)C2)[nH]c1=O (single isomer, unassigned) [Compound 24b] |  | 1 to 10 µM | 
CCc1cnc(-c2ccn(C3CCN(c4ccc(C(=O)NC)nc4)CC3)n2)[nH]c1=O [Compound 25] |  | 0.1 to 1 µM | 
CNC(=O)c1ccc(N2CCC(N3CCC(c4nc5ccccc5c(=O)[nH]4)CC3)CC2)cn1 [Compound 1] |  | 0.1 to 1 µM | 
CNC(=O)c1ccc(N2CCC(N3CCCC(c4nc5ccccc5c(=O)[nH]4)C3)CC2)c(C)n1 (stereo not shown) [Compound 131] |  | 1 to 10 µM | 
CNC(=O)c1ccc(N2CCC(N3CCC(c4ncc(C)c(=O)[nH]4)C3)CC2)cn1 (single isomer, unassigned) [Compound 35a] |  | 0.1 to 1 µM | 
CNC(=O)c1ccc(N2CCC(N3CCC(c4nc5cc(Cl)ccc5c(=O)[nH]4)C3)CC2)cn1 (single isomer, unassigned) [Compound 87a] | + (+ indicates a value of 10 to less than 50) |  | Kd [2, 7]: 0.1 to 1 µM; Kd ([3]; PARP2 probe displacement HTRF): 1 to 10 µM
O=c1[nH]c(C2CCCN(C3CCC(F)(F)CC3)C2)nc2ccccc12 (single isomer, unassigned) [Compound 3a] |  | 0.1 to 1 µM | 
